The values that follow come from the SangsterLogP compilation.

For orientation: logP means a log measure of how a compound divides between an organic and an aqueous phase. A low value points to a more hydrophilic compound.

`Oc1ccc(-c2ccc(O)cc2Cl)cc1` came in with a logP of 3.37.

In turn, `Oc1c(Cl)cc(-c2ccc(Cl)cc2)cc1Cl` registered a logP of 5.22.

Compound `Oc1c(Cl)cc(-c2cc(Cl)c(O)c(Cl)c2)cc1Cl` gave a logP of 5.14.

`Oc1ccc(-c2ccccc2)c(Cl)c1` came in with a logP of 4.04.

Compound `Oc1ccc(-c2ccc(Cl)cc2)cc1` had a logP of 4.04.

In the case of `Oc1ccc(-c2ccccc2)cc1`, the logP was 3.33.

On to `Oc1ccc(-c2ccc(O)cc2)cc1`, for which the logP was 2.66.

Turning to `Oc1ccc(-c2cc(Cl)ccc2Cl)cc1`, the logP was 4.63.

Regarding `Oc1ccc(-c2cc(Cl)c(Cl)c(Cl)c2Cl)cc1`, the logP stood at 5.81.

Compound `Oc1ccc(-c2c(Cl)cc(Cl)cc2Cl)cc1` returned a logP of 5.22.

For `Oc1ccc(-c2c(Cl)cccc2Cl)cc1`, the logP amounted to 4.63.
